# Measured values reported in patent US8088791B2, “Antibacterial agents” (Biots Scientific Management Pty Ltd, priority 2006, dated 2012).
# Where two headings read alike, the source gives them in different places.
# Columns and labels:
# [1] = system: Bacillus subtilis 168CA; assay: Minimum Inhibitory Concentration (MIC) testing, broth microdilution, Bacillus subtilis; assay type: cell-based; conditions: Bacillus subtilis 168CA; read-out: Bacillus subtilis MICs Activity
# Method in brief: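 MICs were scored A (≦8 μg/ml), B (16–64 μg/ml) or C (>64 μg/ml), read as the lowest concentration preventing visible growth by eye and spectrophotometry. Plates incubated overnight (16–20 h) at 37 °C, inoculum OD 0.09 diluted 1:100 in 2× broth, per NCCLS guidelines.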
# [2] = system: Staphylococcus aureus ATCC29213; assay: Minimum Inhibitory Concentration (MIC) testing, broth microdilution, Staphylococcus aureus; assay type: cell-based; conditions: Staphylococcus aureus ATCC29213; read-out: Staphylococcus aureus MICs Activity
# Method in brief: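 Broth microdilution per NCCLS M7-A5 in Mueller Hinton broth, with compound in 1.6% DMSO and inoculum at OD 0.09 diluted 1:100. Plates incubated 16–20 h at 37°C. MIC is the lowest concentration with no visible growth; scored A ≤8, B 16–64, C >64 μg/ml.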
# [3] = system: staphylococcal clinical isolates; assay: Minimum Inhibitory Concentration (MIC) testing, broth microdilution, staphylococcal clinical isolates; assay type: cell-based; conditions: for MIC: read-out: MIC Activity against clinical isolate
# Procedure: (§1) Compounds of this invention were tested for antimicrobial activity by susceptibility testing in liquid media. MICs for compounds against each strain were determined by a broth microdilution method according to the National Committee for Clinical Laboratory Standards (NCCLS) guidelines. (NCCLS. 2000. Methods for dilution antimicrobial susceptibility tests for bacteria that grow aerobically—fifth edition. Approved standard M7-A5. NCCLS, Wayne, Pa.)
# (§2) Briefly, test compounds are prepared in 100 μl of 1.6% DMSO solution in multiwell plates. Several bacterial colonies from a freshly streaked plate are transferred to an appropriate rich broth, such as Mueller Hinton. The cell suspension is adjusted to an optical density of 0.09 and further diluted 1:100 with warm 2× broth. This cell suspension is dispensed into the wells containing compound solution so that the final volume is 200 μl. The plates are incubated overnight (16-20 hours) at 37° C. and turbidity is scored by eye and quantified spectrophotometrically. The MIC is defined as the lowest concentration inhibiting visible growth.
# Some of the Examples were also tested for activity against staphylococcal clinical isolates. […] Activities were again scored as ‘A’ if the MIC was ≦8 micrograms/ml, ‘B’ if the MIC was 16 to 64 micrograms/ml and ‘C’ if the MIC was greater than 64 micrograms/ml.
# [4] = system: various bacterial species; assay: Minimum Inhibitory Concentration (MIC) testing, broth microdilution, other bacterial species; assay type: cell-based
# Procedure: as §1, §2
# Some of the Examples were also tested for activity against other bacterial species. […] Activities were again scored as ‘A’ if the MIC was ≦8 micrograms/ml, ‘B’ if the MIC was 16 to 64 micrograms/ml and ‘C’ if the MIC was greater than 64 micrograms/ml.
# [5] = S. aureus No. 753, Oxacillin S, Hospital
# [6] = S. aureus No. 757, Oxacillin R, Tet-R, MI-R, Hospital (tetM)
# [7] = S. aureus No. 1134, Oxacillin S, Hospital
# [8] = S. aureus No. 1135, Oxacillin R, Van-S, LZD-S, Hospital
# [9] = S. aureus No. 1651, Oxacillin R, Van-S, LZD-R, Hospital (G2576T, G)
# [10] = S. aureus No. 1652, Oxacillin R, Van-S, LZD-R, Hospital (T2500T, A)
# [11] = S. aureus No. 1662, Oxacillin S, Hospital
# [12] = S. aureus No. 1725, Oxacillin R, Van-S, LZD-R, Hospital (G2576T)
# [13] = S. aureus No. 1729, Oxacillin R, Tet-R, MI-R, Hospital
# [14] = S. aureus No. 2011, Oxacillin R, Tet-R, MI-S, Hospital (tetK)
# [15] = S. aureus No. 2012, Oxacillin R, Van-I, LZD-S, Hospital
# [16] = S. aureus No. 2018, Oxacillin R, Van-I, LZD-S, Hospital
# [17] = S. aureus No. 2142, Oxacillin R, CC-S, SXT-S, Community
# [18] = S. aureus No. 2143, Oxacillin R, Rif-R, Community
# [19] = S. aureus No. 2147, Oxacillin R, CC-S, SXT-S, Community
# [20] = S. aureus No. 2149, Oxacillin R, CC-R (iMLS), SXT-S, Community
# [21] = S. aureus No. 2150, Oxacillin R, CC-R, SXT-S, Community
# [22] = S. aureus No. 2158, Oxacillin R, CC-R, Doxy-I, Community
# [23] = S. aureus No. 2175, Oxacillin R, TMP-R, Community
# [24] = S. epidermidis No. 831, Oxacillin R
# [25] = S. epidermidis No. 1139, Oxacillin S
# [26] = S. epidermidis No. 1142, Oxacillin R
# [27] = S. epidermidis No. 1144, Oxacillin R
# [28] = Staphylococcus aureus, ATCC29213, S. aureus No. 0100, Oxacillin S, ATCC 29213
# [29] = Staphylococcus aureus, S. aureus No. 1015, Oxacillin R, Van-S, LZD-S, Hospital
# [30] = Staphylococcus epidermidis, S. epidermidis No. 835, Oxacillin S
# [31] = Bacillus cereus, ATCC14579, read-out: MIC Activity Bacillus cereus ATCC 14579
# [32] = Staphylococcus saprophyticus, ATCC15305, read-out: MIC Activity Staphylococcus saprophyticus ATCC 15305
compound,measurement,setting,value
"NC(=O)c1c(F)ccc(OCc2ccc3sccc3c2)c1F [Example 201, 3-(1-Benzothiophen-5-ylmethoxy)-2,6-difluorobenzenecarboxamide]",MIC,[1],< 8 µg/mL
same,MIC,[2],16 to 64 µg/mL
same,melting point,,146 to 148 °C
"CCCCCCOC(=O)COc1ccc(F)c(C(N)=O)c1F [Example 89, Hexyl 2-[3-(aminocarbonyl)-2,4-difluorophenoxy]acetate]",MIC,[1],< 8 µg/mL
same,MIC,[2],< 8 µg/mL
same,melting point,,108 °C
"NC(=O)c1c(F)ccc(OCc2ccc3ccccc3n2)c1F [Example 200, 2,6-Difluoro-3-(2-quinolinylmethoxy)benzenecarboxamide]",MIC,[1],< 8 µg/mL
same,MIC,[2],16 to 64 µg/mL
same,melting point,,216 to 218 °C
"CCCCOC(=O)CCCOc1ccc(F)c(C(N)=O)c1F [Example 181, Butyl 4-[3-(aminocarbonyl)-2,4-difluorophenoxy]butanoate]",MIC,[1],< 8 µg/mL
same,MIC,[2],16 to 64 µg/mL
same,melting point,,53 to 55 °C
"C#CCCCCCCCOc1cccc(C(N)=O)c1 [Example 65, 3-(8-Nonynyloxy)benzenecarboxamide]",MIC,[1],< 8 µg/mL
same,MIC,[2],< 8 µg/mL
same,melting point,,82 to 83 °C
"Cc1cc(COc2ccc(F)c(C(N)=O)c2F)ccn1 [Example 198, 2,6-Difluoro-3-[(2-methyl-4-pyridinyl)methoxy]benzenecarboxamide]",MIC,[1],16 to 64 µg/mL
same,melting point,,185 to 186 °C
"CCCCCCOc1ccc(F)c(C(N)=O)c1Cl [Example 77, 2-Chloro-6-fluoro-3-(hexyloxy)benzenecarboxamide]",MIC,[1],16 to 64 µg/mL
same,MIC,[2],16 to 64 µg/mL
same,melting point,,66 to 68 °C
"N#CCCCCCCCCCOc1cccc(C(N)=O)c1 [Example 93, 3-[(9-Cyanononyl)oxy]benzenecarboxamide]",MIC,[1],< 8 µg/mL
same,MIC,[2],16 to 64 µg/mL
same,melting point,,96 to 97 °C
"Cc1ccc(S(=O)(=O)OCCCCCCCCCOc2cccc(C(N)=O)c2)cc1 [Example 92, 9-[3-(Aminocarbonyl)phenoxy]nonyl 4-methylbenzenesulfonate]",MIC,[1],< 8 µg/mL
same,melting point,,78 to 80 °C
"C#CCCCCCCOC(=O)COc1ccc(F)c(C(N)=O)c1F [Example 90, 7-Octynyl 2-[3-(aminocarbonyl)-2,4-difluorophenoxy]acetate]",MIC,[1],< 8 µg/mL
same,MIC,[2],< 8 µg/mL
same,melting point,,130 to 132 °C
"NC(=O)c1c(F)ccc(OCc2nc3ccc(OC(F)(F)F)cc3s2)c1F [Example 230, 2,6-Difluoro-3-[6-(trifluoromethoxy)-1,3-benzothiazol-2-yl]methoxybenzenecarboxamide]",MIC,[1],< 8 µg/mL
same,MIC,[2],< 8 µg/mL
same,melting point,,174 to 175 °C
"NC(=O)c1c(F)ccc(OCc2nc3cc(C(F)(F)F)ccc3s2)c1F [Example 217, 2,6-Difluoro-3-[5-(trifluoromethyl)-1,3-benzothiazol-2-yl]methoxybenzenecarboxamide]",MIC,[1],< 8 µg/mL
same,MIC,[2],< 8 µg/mL
same,MIC Activity against clinical isolate,[3]; [5],A (‘A’ if the MIC was ≦8 micrograms/ml)
same,MIC Activity against clinical isolate,[3]; [6],A (‘A’ if the MIC was ≦8 micrograms/ml)
same,MIC Activity against clinical isolate,[3]; [7],A (‘A’ if the MIC was ≦8 micrograms/ml)
same,MIC Activity against clinical isolate,[3]; [8],A (‘A’ if the MIC was ≦8 micrograms/ml)
same,MIC Activity against clinical isolate,[3]; [9],A (‘A’ if the MIC was ≦8 micrograms/ml)
same,MIC Activity against clinical isolate,[3]; [10],A (‘A’ if the MIC was ≦8 micrograms/ml)
same,MIC Activity against clinical isolate,[3]; [11],A (‘A’ if the MIC was ≦8 micrograms/ml)
same,MIC Activity against clinical isolate,[3]; [12],A (‘A’ if the MIC was ≦8 micrograms/ml)
same,MIC Activity against clinical isolate,[3]; [13],A (‘A’ if the MIC was ≦8 micrograms/ml)
same,MIC Activity against clinical isolate,[3]; [14],A (‘A’ if the MIC was ≦8 micrograms/ml)
same,MIC Activity against clinical isolate,[3]; [15],A (‘A’ if the MIC was ≦8 micrograms/ml)
same,MIC Activity against clinical isolate,[3]; [16],A (‘A’ if the MIC was ≦8 micrograms/ml)
same,MIC Activity against clinical isolate,[3]; [17],A (‘A’ if the MIC was ≦8 micrograms/ml)
same,MIC Activity against clinical isolate,[3]; [18],A (‘A’ if the MIC was ≦8 micrograms/ml)
same,MIC Activity against clinical isolate,[3]; [19],A (‘A’ if the MIC was ≦8 micrograms/ml)
same,MIC Activity against clinical isolate,[3]; [20],A (‘A’ if the MIC was ≦8 micrograms/ml)
same,MIC Activity against clinical isolate,[3]; [21],A (‘A’ if the MIC was ≦8 micrograms/ml)
same,MIC Activity against clinical isolate,[3]; [22],A (‘A’ if the MIC was ≦8 micrograms/ml)
same,MIC Activity against clinical isolate,[3]; [23],A (‘A’ if the MIC was ≦8 micrograms/ml)
same,MIC Activity against clinical isolate,[3]; [24],A (‘A’ if the MIC was ≦8 micrograms/ml)
same,MIC Activity against clinical isolate,[3]; [25],A (‘A’ if the MIC was ≦8 micrograms/ml)
same,MIC Activity against clinical isolate,[3]; [26],A (‘A’ if the MIC was ≦8 micrograms/ml)
same,MIC Activity against clinical isolate,[3]; [27],A (‘A’ if the MIC was ≦8 micrograms/ml)
same,MIC,[3]; [28],< 8 µg/mL
same,MIC,[3]; [29],< 8 µg/mL
same,MIC,[3]; [30],< 8 µg/mL
same,MIC,[4]; [31],< 8 µg/mL
same,MIC,"[4]; Staphylococcus epidermidis, ATCC12228, read-out: MIC Activity Staphylococcus epidermidis ATCC 12228",< 8 µg/mL
same,MIC,[4]; [32],< 8 µg/mL
"NC(=O)c1cccc(OCCCCCCCc2ccsc2)c1 [Example 63, 3-{[7-(3-Thienyl)heptyl]oxy}benzenecarboxamide]",MIC,[1],< 8 µg/mL
same,melting point,,97 to 100 °C
"Cc1ccc(-c2nc(COc3ccc(F)c(C(N)=O)c3F)cs2)cc1 [Example 236, 2,6-Difluoro-3-[2-(4-methylphenyl)-1,3-thiazol-4-yl]methoxybenzenecarboxamide]",MIC,[1],< 8 µg/mL
same,MIC,[2],< 8 µg/mL
same,MIC Activity against clinical isolate,[3]; [5],A (‘A’ if the MIC was ≦8 micrograms/ml)
same,MIC Activity against clinical isolate,[3]; [6],A (‘A’ if the MIC was ≦8 micrograms/ml)
same,MIC Activity against clinical isolate,[3]; [7],A (‘A’ if the MIC was ≦8 micrograms/ml)
same,MIC Activity against clinical isolate,[3]; [8],A (‘A’ if the MIC was ≦8 micrograms/ml)
same,MIC Activity against clinical isolate,[3]; [9],A (‘A’ if the MIC was ≦8 micrograms/ml)
same,MIC Activity against clinical isolate,[3]; [10],A (‘A’ if the MIC was ≦8 micrograms/ml)
same,MIC Activity against clinical isolate,[3]; [11],A (‘A’ if the MIC was ≦8 micrograms/ml)
same,MIC Activity against clinical isolate,[3]; [12],A (‘A’ if the MIC was ≦8 micrograms/ml)
same,MIC Activity against clinical isolate,[3]; [13],A (‘A’ if the MIC was ≦8 micrograms/ml)
same,MIC Activity against clinical isolate,[3]; [14],A (‘A’ if the MIC was ≦8 micrograms/ml)
same,MIC Activity against clinical isolate,[3]; [15],A (‘A’ if the MIC was ≦8 micrograms/ml)
same,MIC Activity against clinical isolate,[3]; [16],A (‘A’ if the MIC was ≦8 micrograms/ml)
same,MIC Activity against clinical isolate,[3]; [17],A (‘A’ if the MIC was ≦8 micrograms/ml)
same,MIC Activity against clinical isolate,[3]; [18],A (‘A’ if the MIC was ≦8 micrograms/ml)
same,MIC Activity against clinical isolate,[3]; [19],A (‘A’ if the MIC was ≦8 micrograms/ml)
same,MIC Activity against clinical isolate,[3]; [20],A (‘A’ if the MIC was ≦8 micrograms/ml)
same,MIC Activity against clinical isolate,[3]; [21],A (‘A’ if the MIC was ≦8 micrograms/ml)
same,MIC Activity against clinical isolate,[3]; [22],A (‘A’ if the MIC was ≦8 micrograms/ml)
same,MIC Activity against clinical isolate,[3]; [23],A (‘A’ if the MIC was ≦8 micrograms/ml)
same,MIC Activity against clinical isolate,[3]; [24],A (‘A’ if the MIC was ≦8 micrograms/ml)
same,MIC Activity against clinical isolate,[3]; [25],A (‘A’ if the MIC was ≦8 micrograms/ml)
same,MIC Activity against clinical isolate,[3]; [26],A (‘A’ if the MIC was ≦8 micrograms/ml)
same,MIC Activity against clinical isolate,[3]; [27],A (‘A’ if the MIC was ≦8 micrograms/ml)
same,MIC,[3]; [28],< 8 µg/mL
same,MIC,[3]; [29],< 8 µg/mL
same,MIC,[3]; [30],< 8 µg/mL
same,MIC,[4]; [31],< 8 µg/mL
same,MIC,[4]; [32],< 8 µg/mL
